The structures appear in SMILES notation.

Data set [1] concerns rat. Briefly: Rat intraplantar carrageenan model of hyperalgesia and inflammation. Format: in vivo. The settings on record: oral; for ED50: Rattus norvegicus, 30 minutes prior to carrageenan (100 μl of 2% intraplantar), read at three hours, read-out: ED50 for inhibition of the carrageenan-induced reduction in weight bearing. The protocol:
Three hours after intraplantar carrageenan administration (100 μl of 2%) in the rat there is a reduction in weight bearing on the inflamed paw and an increase in paw volume consistent with acute hyperalgesia and inflammation.

Data set [2] deals with recombinant human brain type IIA Na+ channel expressed in Chinese hamster ovary cells (Homo sapiens, UniProt Q99250). Briefly: Whole-cell voltage-clamp on voltage-gated sodium channels.
Chain of recombinant human brain type IIA Na+ channel expressed in Chinese hamster ovary cells (Q99250 whole entry, the tested form may be a part): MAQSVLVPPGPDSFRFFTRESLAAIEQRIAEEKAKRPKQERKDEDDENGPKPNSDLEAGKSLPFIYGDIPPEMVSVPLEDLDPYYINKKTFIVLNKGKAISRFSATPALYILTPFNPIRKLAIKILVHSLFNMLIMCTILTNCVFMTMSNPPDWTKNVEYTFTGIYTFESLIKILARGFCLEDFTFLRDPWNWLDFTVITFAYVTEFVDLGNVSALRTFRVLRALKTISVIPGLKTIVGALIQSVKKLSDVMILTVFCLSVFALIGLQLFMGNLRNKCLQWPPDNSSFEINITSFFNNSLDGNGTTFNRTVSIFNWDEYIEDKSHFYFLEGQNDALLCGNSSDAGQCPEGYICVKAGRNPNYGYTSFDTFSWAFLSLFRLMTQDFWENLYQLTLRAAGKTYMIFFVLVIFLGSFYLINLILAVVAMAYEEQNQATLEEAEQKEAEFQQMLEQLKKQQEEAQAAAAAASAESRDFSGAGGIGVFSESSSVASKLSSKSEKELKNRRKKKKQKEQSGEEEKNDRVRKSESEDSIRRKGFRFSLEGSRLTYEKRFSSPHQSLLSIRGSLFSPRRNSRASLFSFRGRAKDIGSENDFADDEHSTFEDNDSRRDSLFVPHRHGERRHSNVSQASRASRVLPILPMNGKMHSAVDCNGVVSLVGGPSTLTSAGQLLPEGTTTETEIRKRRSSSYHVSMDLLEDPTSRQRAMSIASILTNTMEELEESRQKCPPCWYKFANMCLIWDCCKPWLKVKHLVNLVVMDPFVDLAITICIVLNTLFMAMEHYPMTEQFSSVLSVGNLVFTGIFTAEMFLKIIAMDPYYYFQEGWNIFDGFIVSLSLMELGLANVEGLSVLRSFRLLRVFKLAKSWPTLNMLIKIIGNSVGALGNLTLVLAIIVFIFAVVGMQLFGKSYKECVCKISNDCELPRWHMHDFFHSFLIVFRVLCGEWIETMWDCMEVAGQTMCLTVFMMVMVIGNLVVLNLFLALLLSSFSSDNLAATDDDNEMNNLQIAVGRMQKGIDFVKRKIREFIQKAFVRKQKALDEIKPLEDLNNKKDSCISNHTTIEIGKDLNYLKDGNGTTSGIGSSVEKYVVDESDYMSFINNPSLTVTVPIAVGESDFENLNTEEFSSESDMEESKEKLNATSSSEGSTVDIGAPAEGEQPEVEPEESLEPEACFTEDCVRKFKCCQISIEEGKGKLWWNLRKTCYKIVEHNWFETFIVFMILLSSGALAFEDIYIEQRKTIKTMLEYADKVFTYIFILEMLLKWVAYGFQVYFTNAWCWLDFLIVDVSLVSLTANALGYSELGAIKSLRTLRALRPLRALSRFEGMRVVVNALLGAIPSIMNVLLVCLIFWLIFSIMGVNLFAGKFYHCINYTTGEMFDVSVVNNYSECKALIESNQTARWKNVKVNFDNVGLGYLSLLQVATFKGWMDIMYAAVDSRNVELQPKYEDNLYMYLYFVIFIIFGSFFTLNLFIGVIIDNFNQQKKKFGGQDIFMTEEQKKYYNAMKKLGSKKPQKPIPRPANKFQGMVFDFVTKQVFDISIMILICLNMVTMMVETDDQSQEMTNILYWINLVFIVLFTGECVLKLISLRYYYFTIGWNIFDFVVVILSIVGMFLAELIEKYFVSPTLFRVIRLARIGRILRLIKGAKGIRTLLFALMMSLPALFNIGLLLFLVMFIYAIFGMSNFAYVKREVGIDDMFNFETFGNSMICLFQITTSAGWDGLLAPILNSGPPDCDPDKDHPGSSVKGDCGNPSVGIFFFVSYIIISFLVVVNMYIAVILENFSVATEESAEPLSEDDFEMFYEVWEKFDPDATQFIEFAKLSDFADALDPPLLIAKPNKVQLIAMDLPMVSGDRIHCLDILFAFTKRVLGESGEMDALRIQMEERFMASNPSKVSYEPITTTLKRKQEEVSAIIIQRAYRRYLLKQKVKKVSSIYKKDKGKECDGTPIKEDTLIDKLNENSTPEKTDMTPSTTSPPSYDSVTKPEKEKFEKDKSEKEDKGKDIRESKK
For data set [3], the system named is mouse. Briefly: Mouse pentylenetetrazol infusion test. In kind it is in vivo. The settings on record: 1 h, read-out: ED50 in pentylenetetrazol infusion test (time to second twitch).
For data set [4], the system named is male Han Wistar rats. As to the kind of experiment: Rat maximal electroshock test (MES). In kind it is in vivo. As to conditions: oral, 2 hr prior to test; for ED50: Rattus norvegicus, suspension in 0.25% methylcellulose, 200 mA, 200 millisec, read-out: MES ED50 (hind limb extension); for therapeutic index (ratio of the ataxia ED50 and MES ED50): rat. The protocol: For example, male Han Wistar rats (150-200 grms) were dosed orally with a suspension of the test compound in 0.25% methylcellulose 2 hr prior to test. A visual observation is carried out just prior to testing for the presence of ataxia. Using auricular electrodes a current of 200 mA, duration 200 millisec, is applied and the presence or absence of hind limb extension noted.

Data set [5] has as its system Male C57BL/6 mice. As to the kind of experiment: Mouse MPTP induced neurotoxicity (striatal dopamine depletion). Format: in vivo. The settings on record: 30 minutes before each MPTP injection, striata seven days after MPTP. The method, then:
The mouse MPTP model is generally used as a model of Parkinson's disease.
Male C57BL/6 mice received four intraperitoneal injections of MPTP.HCl (15 mg of free base per kg; Research Biochemicals) in saline at 2 hour intervals. Control mice received saline only. The test-compound was administered as four subcutaneous injections in olive oil at 2 hour intervals, 30 minutes before each MPTP injection.
Seven days after MPTP injection the mice were sacrificed and the striata dissected out, immediately frozen, and stored at −80° C. until analysis. On the day of assay issue samples were sonicated in 10 volume (wt./vol.) of 0.1 M perchloric acid containing 1.9 mM sodium hydrosulfite and 1.6 mg/ml DBA-HBr. After centrifugation (2800 g, 10 min at room temperature) and filtration (pore size 0.5 μm, Millipore), the supernatant was transferred to a vial and placed in the automatic sampler (M231XL, Gilson). Dopamine content was measured by high performance liquid chromatography. A compound of formula (I) produced 75% protection against dopamine depletion when dosed at 3 mg/kg (×4) and 98% protection when dosed at 10 mg/kg (×4).

Consider `Nc1ncnnc1-c1cc(Cl)cc(Cl)c1Cl` [compound of formula (I), 5-amino-6-[2,3,5-trichlorophenyl]-1,2,4-triazine], for which the “reduction in paw volume (anti-inflammatory activity)” value in data set [1] (30 mg/kg, 30 minutes prior to carrageenan) is 50%. Moreover, the figures for the ED50 in data set [1], in data set [3] and in data set [4] were 7.5 mg/kg, 3.8 mg/kg and 1.7 mg/kg, respectively. Further, in data set [2], the IC50 was 785 µM. Further, in data set [2], the “state selectivity (potency at inactivated state versus resting state)” value was “approximately 70 fold”. The “therapeutic index (ratio of the ataxia ED50 and MES ED50)” value in data set [4] is 23.7. Moreover, the figures for the “protection against dopamine depletion” value in data set [5] (3 mg/kg (×4) subcutaneous) and in data set [5] (10 mg/kg (×4) subcutaneous) were 75% and 98%, respectively.
In the case of `Nc1nnc(-c2cccc(Cl)c2Cl)c(N)n1` [lamotrigine, 3,5diamino-6-(2,3dichlorophenyl)-1,2,4-triazine, reference compound], the median effective dose (ED50) in data set [1] stood at 23.5 mg/kg; in data set [3], 8.4 mg/kg; in data set [4], 6.1 mg/kg. Moreover, the “state selectivity (potency at inactivated state versus resting state)” value in data set [2] was “approximately 30 fold”. The “therapeutic index (ratio of the ataxia ED50 and MES ED50)” value in data set [4] was found to be 3.3.
